Experiment [1] is described as follows: VLA-4/VCAM-1 cell adhesion inhibition test. In kind it is cell-based. As to conditions: Homo sapiens; adhesion of BCECF-labeled HL-60 cells to VCAM-1-expressing CHO cells; read-out: 50% Inhibition Concentration.
Method: VCAM-1-expressing CHO cells were placed in a 96-well cuture plate in an amount of 7×10^3 cells/well, and were cultured in Ham's F-12 medium containing 10 vol % fetal calf serum (FCS) for 3 days until a confluent state was satisfied. HL-60 cells were re-flotated in Hanks' solution containing 0.4 wt % bovine serum albumin (BSA), and fluorescence-labeled by adding 5 μM of 2′,7′-bis(carboxyethyl)-5(6)-carboxy fluorescein pentaacetoxymethyl ester (BCECF-AM). […]
Thus-pretreated HL-60 cells were then stratified in an amount of 2×10^5 cells/well in each well containing the cultured VCAM-1-expressing CHO cells, and allowed to adhere at 37° C. for 5 minutes. […] The cells were washed, destroyed by adding PBS containing 1 vol % NP-40, and fluorescence intensity of the obtained supernatant was measured using a fluorescence measurement system (Millipore, Model cyto Fluor 2300).
Blank experiment was based on fluorescence intensity of PBS containing 1 vol % NP-40. Standard experiment was carried out using the fluorescence-labeled HL-60 suspensions having a concentration of 2×10^5, 10^5, 2×10^4 and 10^4 cells/mL, respectively, where the suspensions were added to PBS containing 1 vol % NP-40, the cells were destroyed, and the fluorescence intensities of the obtained supernatant were measured. […]
Experiment [2] concerns LPAM-1/VCAM-1 adhesion. Briefly: LPAM-1/VCAM-1 adhesion inhibition test.

Turning to `CC(C)CNc1cccc(C(Cc2ccc(NC(=O)c3c(Cl)cccc3Cl)cc2)C(=O)O)c1` (stereo not drawn) [Example 27], the IC50 in experiment [1] was found to be 6 µM.
For `COc1ccc(C(Cc2ccc(-c3c(OC)cccc3OC)cc2)C(=O)O)cc1N(CC(C)C)C(=O)C(C)(C)C` (stereo not drawn) [Example 106], in experiment [1], the IC50 was determined as 4.1 µM. Also, in experiment [2], the “inhibition activity in LPAM-1/VCAM-1 adhesion inhibition test” value is recorded as “showed the inhibition activity”.

The values are drawn from patent US7335673B2, “2,3-Diphenylpropionic acid derivatives or their salts, medicines or cell adhesion inhibitors containing the same, and their usage” (Kaken Pharmaceutical Co., Ltd., priority 2001, dated 2008).
